Assay results from US8476256B2, “Diazonamide analogs” (Joyant Pharmaceuticals, Inc., priority 2008, dated 2013).

Assays:
[1] = tested on: U937 (human leukemic monocyte lymphoma) cell line; assay: Cell viability assay (CELL-TITER-GLO), U937; type: cell-based; conditions: U-937, U937 cells, 48 hour treatment, 1 nM to 1 μM
Method: (§1) Cell viability assays were run using standard protocols known to those of skill in art. Cells were plated in 96 well plates at the density of 3,000-10,000 cells per well. Twenty four hours later, cells were treated with increasing concentration of test compounds (1 nM to 1 μM). After another 48 hour, cell survival was measured using CELL-TITER-GLO® reagent (Promega) following the protocol provided by the manufacture. The IC50 value was determined as the concentration of test compound that kills 50% of the cell population.
(§2) Cell viability data generated according to the protocol described herein was generated for representative compounds in the A2058 (human melanoma) and U937 (human leukemic monocyte lymphoma) cell lines. The compound of Example 16 (“Compound J”) was used as a reference compound.

[2] = tested on: A2058 (human melanoma) cell line; assay: Cell viability assay (CELL-TITER-GLO), A2058; type: cell-based; conditions: A2058 cells, 48 hour treatment, 1 nM to 1 μM
Method: as §1, §2

Structure (SMILES)	IC50 [1]	IC50 [2]
COc1cc(C(=O)NC2Cc3ccc4c(c3)C35C6=C(N=C(O6)[C@H](C(C)C)NC2=O)c2ncc(o2)-c2c[nH]c6cccc(c26)-c2cccc3c2N[C@H]5O4)cc(OC)c1OC (some centres unmarked) [Example 59]	0.619 µM	0.798 µM
CC(C)[C@@H]1NC(=O)C(NC(=O)C(C)(C)C)Cc2ccc3c(c2)[C@]24C5=C(N=C1O5)c1ncc(o1)-c1c[nH]c5cccc(c15)-c1cccc2c1NC4O3 (some centres unmarked) [Example 60]	0.255 µM	0.538 µM
CCCC(C)C(=O)NC1Cc2ccc3c(c2)[C@]24C5=C(N=C(O5)[C@H](C(C)C)NC1=O)c1ncc(o1)-c1c[nH]c5cccc(c15)-c1cccc2c1NC4O3 (some centres unmarked) [Example 61]	0.55 µM	0.636 µM
CCC(CC)C(=O)NC1Cc2ccc3c(c2)[C@]24C5=C(N=C(O5)[C@H](C(C)C)NC1=O)c1ncc(o1)-c1c[nH]c5cccc(c15)-c1cccc2c1NC4O3 (some centres unmarked) [Example 62]	0.247 µM	0.556 µM
CC(C)[C@@H]1NC(=O)C(NC(=O)c2cccs2)Cc2ccc3c(c2)[C@]24C5=C(N=C1O5)c1ncc(o1)-c1c[nH]c5cccc(c15)-c1cccc2c1NC4O3 (some centres unmarked) [Example 63]	0.206 µM	0.488 µM
CC(C)[C@@H]1NC(=O)C(NC(=O)Cc2cccs2)Cc2ccc3c(c2)[C@]24C5=C(N=C1O5)c1ncc(o1)-c1c[nH]c5cccc(c15)-c1cccc2c1NC4O3 (some centres unmarked) [Example 64]	> 1 µM	> 1 µM
CC(C)[C@@H]1NC(=O)C(NC=O)Cc2ccc3c(c2)C24C5=C(N=C1O5)c1ncc(o1)-c1c[nH]c5cccc(c15)-c1cccc2c1N[C@H]4O3 (some centres unmarked) [Example 66]	0.499 µM	0.766 µM
CC(C)=CCC/C(C)=C/CNC1Cc2ccc3c(c2)C24C5=C(N=C(O5)[C@H](C(C)C)NC1=O)c1ncc(o1)-c1c[nH]c5cccc(c15)-c1cccc2c1N[C@H]4O3 (some centres unmarked) [Example 67]	> 1 µM	> 1 µM
CC(C)OC(=O)NC1Cc2ccc3c(c2)C24C5=C(N=C(O5)[C@H](C(C)C)NC1=O)c1ncc(o1)-c1c[nH]c5cccc(c15)-c1cccc2c1N[C@H]4O3 (some centres unmarked) [Example 68]	0.214 µM	0.451 µM
CC(C)COC(=O)NC1Cc2ccc3c(c2)[C@]24C5=C(N=C(O5)[C@H](C(C)C)NC1=O)c1ncc(o1)-c1c[nH]c5cccc(c15)-c1cccc2c1NC4O3 (some centres unmarked) [Example 69]	0.272 µM	0.541 µM
C#CCOC(=O)NC1Cc2ccc3c(c2)[C@]24C5=C(N=C(O5)[C@H](C(C)C)NC1=O)c1ncc(o1)-c1c[nH]c5cccc(c15)-c1cccc2c1NC4O3 (some centres unmarked) [Example 70]	0.434 µM	0.692 µM
C=CCOC(=O)NC1Cc2ccc3c(c2)[C@]24C5=C(N=C(O5)[C@H](C(C)C)NC1=O)c1ncc(o1)-c1c[nH]c5cccc(c15)-c1cccc2c1NC4O3 (some centres unmarked) [Example 71]	0.185 µM	0.451 µM
CCCSC(=O)NC1Cc2ccc3c(c2)[C@]24C5=C(N=C(O5)[C@H](C(C)C)NC1=O)c1ncc(o1)-c1c[nH]c5cccc(c15)-c1cccc2c1NC4O3 (some centres unmarked) [Example 72]	0.543 µM	0.6 µM
CC(C)[C@@H]1NC(=O)C(NS(C)(=O)=O)Cc2ccc3c(c2)C24C5=C(N=C1O5)c1ncc(o1)-c1c[nH]c5cccc(c15)-c1cccc2c1N[C@H]4O3 (some centres unmarked) [Example 73]	0.067 µM	0.14 µM
CC(C)[C@@H]1NC(=O)C(NS(=O)(=O)c2ccccc2)Cc2ccc3c(c2)[C@]24C5=C(N=C1O5)c1ncc(o1)-c1c[nH]c5cccc(c15)-c1cccc2c1NC4O3 (some centres unmarked) [Example 74]	> 1 µM	0.429 µM
CC(C)[C@@H]1NC(=O)C(NS(=O)(=O)c2cccs2)Cc2ccc3c(c2)[C@]24C5=C(N=C1O5)c1ncc(o1)-c1c[nH]c5cccc(c15)-c1cccc2c1NC4O3 (some centres unmarked) [Example 75]	> 1 µM	> 1 µM

Structure (SMILES)	IC50 [1]	IC50 [2]
COC(=O)c1nc2oc1-c1c[nH]c3cccc(c13)-c1cccc3c1N[C@H]1Oc4ccc5cc4C31c1oc(nc1-2)[C@H](C(C)C)NC(=O)C(NC(=O)[C@@H](O)C(C)C)C5 (some centres unmarked) [Example 76]	0.018 µM	0.013 µM
CC(C)[C@H](O)C(=O)NC1Cc2ccc3c(c2)C24C5=C(N=C(O5)[C@H](C(C)C)NC1=O)c1ncc(o1)-c1c[nH]c5c(O)ccc(c15)-c1cccc2c1N[C@H]4O3 (some centres unmarked) [Example 77]	0.052 µM	0.07 µM
COc1ccc2c3c(c[nH]c13)-c1cnc(o1)-c1nc3oc1C14c5cc(ccc5O[C@@H]1Nc1c-2cccc14)CC(NC(=O)[C@@H](O)C(C)C)C(=O)N[C@H]3C(C)C (some centres unmarked) [Example 78]	0.051 µM	0.042 µM
COc1ccc2c3c(cn(C)c13)-c1cnc(o1)-c1nc3oc1C14c5cc(ccc5O[C@@H]1Nc1c-2cccc14)CC(NC(=O)[C@@H](O)C(C)C)C(=O)N[C@H]3C(C)C (some centres unmarked) [Example 79]	0.027 µM	0.022 µM
CCC(O)(CC)C(=O)N[C@H]1Cc2ccc3c(c2)C24C5=C(N=C(O5)[C@H](C(C)C)NC1=O)c1ncc(o1)-c1c[nH]c5c(O)ccc(c15)-c1cccc2c1N[C@H]4O3 (some centres unmarked) [Example 80]	0.182 µM	0.183 µM
CCC(O)(CC)C(=O)N[C@H]1Cc2ccc3c(c2)C24C5=C(N=C(O5)[C@H](C(C)C)NC1=O)c1ncc(o1)-c1c[nH]c5c(OC)ccc(c15)-c1cccc2c1N[C@H]4O3 (some centres unmarked) [Example 81]	0.054 µM	0.123 µM
CCC(O)(CC)C(=O)N[C@H]1Cc2ccc3c(c2)C24C5=C(N=C(O5)[C@H](C(C)C)NC1=O)c1ncc(o1)-c1cn(C)c5c(OC)ccc(c15)-c1cccc2c1N[C@H]4O3 (some centres unmarked) [Example 82]	0.021 µM	0.029 µM
CC(C)[C@H](O)C(=O)N[C@H]1Cc2ccc3c(c2)C24C5=C(N=C(O5)[C@H](C(C)C)NC1=O)c1nc(Cl)c(o1)-c1c(Cl)[nH]c5cccc(c15)-c1cc(Cl)cc2c1N[C@H]4O3 (some centres unmarked) [Example 83]	0.693 µM	0.63 µM
CC(C)[C@H](O)C(=O)N[C@H]1Cc2ccc3c(c2)C24C5=C(N=C(O5)[C@H](C(C)C)NC1=O)c1ncc(o1)-c1c[nH]c5cccc(c15)-c1cc(Br)cc2c1N[C@H]4O3 (some centres unmarked) [Example 84]	0.648 µM	0.51 µM
CC(C)[C@H](O)C(=O)N[C@H]1Cc2ccc3c(c2)C24C5=C(N=C(O5)[C@H](C(C)C)NC1=O)c1nc(Cl)c(o1)-c1c[nH]c5cccc(c15)-c1cccc2c1N[C@H]4O3 (some centres unmarked) [Example 86]	0.084 µM	0.081 µM
CCC(O)(CC)C(=O)N[C@H]1Cc2ccc3c(c2)C24C5=C(N=C(O5)[C@H](C(C)C)NC1=O)c1ncc(o1)-c1c[nH]c5cccc(c15)-c1cc(Br)cc2c1N[C@H]4O3 (some centres unmarked) [Example 87]	> 1 µM	> 1 µM
CCC(O)(CC)C(=O)N[C@H]1Cc2ccc3c(c2)C24C5=C(N=C(O5)[C@H](C(C)C)NC1=O)c1nc(Br)c(o1)-c1c[nH]c5cccc(c15)-c1cc(Br)cc2c1N[C@H]4O3 (some centres unmarked) [Example 88]	> 1 µM	> 1 µM
CC(C)[C@H](O)C(=O)N[C@H]1Cc2ccc3c(c2)C24C5=C(N=C(O5)[C@H](C(C)C)NC1=O)c1nc(Br)c(o1)-c1c(Cl)[nH]c5cccc(c15)-c1cccc2c1N[C@H]4O3 (some centres unmarked) [Example 89]	0.079 µM	0.158 µM
CCC(O)(CC)C(=O)NC1Cc2ccc3c(c2)C24C5=C(N=C(O5)[C@H](C(C)C)NC1=O)c1nc(Cl)c(o1)-c1c(Cl)[nH]c5cccc(c15)-c1cccc2c1N[C@H]4O3 (some centres unmarked) [Example 90]	0.302 µM	0.375 µM
CCC(O)(CC)C(=O)NC1Cc2ccc3c(c2)C24C5=C(N=C(O5)[C@H](C(C)C)NC1=O)c1nc(Cl)c(o1)-c1c(Cl)[nH]c5cccc(c15)-c1cc(Cl)cc2c1N[C@H]4O3 (some centres unmarked) [Example 91]	> 1 µM	> 1 µM
